# Read-outs that look alike come from different tables or passages of the source.
# Tests used:
# [1] = target: T1, FPRL1 (Homo sapiens, UniProt P25090); experiment: compound-induced calcium activity on FLIPR Tetra in CHO-Gal6 cells stably expressing FPRL1; type: cell-based; settings: for FPRL1 (rel. eff.): relative efficacy
# T1 construct: expressed in transfected cells; host or cells: CHO-Gal6 (CHO cells with G alpha 16)
# T1 sequence (P25090 1-351): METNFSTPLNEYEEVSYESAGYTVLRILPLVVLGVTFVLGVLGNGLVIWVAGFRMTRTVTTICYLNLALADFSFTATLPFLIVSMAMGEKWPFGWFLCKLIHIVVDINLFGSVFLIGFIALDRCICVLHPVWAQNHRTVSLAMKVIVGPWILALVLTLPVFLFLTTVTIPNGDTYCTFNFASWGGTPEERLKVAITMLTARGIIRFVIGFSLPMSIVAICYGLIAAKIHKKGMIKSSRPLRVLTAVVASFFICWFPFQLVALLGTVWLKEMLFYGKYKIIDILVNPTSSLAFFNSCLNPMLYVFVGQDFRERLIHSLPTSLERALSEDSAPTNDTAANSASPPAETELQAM
# How it was run: (§1)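 FPRL1 tested in CHO-Gal6 cells and FPR1 in HEK-Gqi5 cells, both stably expressing receptor and plated the day before. Compound-induced calcium response measured on FLIPR Tetra at 0.61 to 10,000 nM. EC50 (nM) and efficacy reported.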
# [2] = target: T2, FPR1 (Homo sapiens, UniProt P21462); experiment: compound-induced calcium activity on FLIPR Tetra in HEK-Gqi5 cells stable expressing FPR1; type: cell-based; settings: class symbol NA, read-out: FPR1 EC50 (NA = Not Active)
# T2 construct: expressed in transfected cells; host or cells: HEK-Gqi5 (HEK cells with chimeric G protein Gqi5)
# T2 sequence (P21462 1-350): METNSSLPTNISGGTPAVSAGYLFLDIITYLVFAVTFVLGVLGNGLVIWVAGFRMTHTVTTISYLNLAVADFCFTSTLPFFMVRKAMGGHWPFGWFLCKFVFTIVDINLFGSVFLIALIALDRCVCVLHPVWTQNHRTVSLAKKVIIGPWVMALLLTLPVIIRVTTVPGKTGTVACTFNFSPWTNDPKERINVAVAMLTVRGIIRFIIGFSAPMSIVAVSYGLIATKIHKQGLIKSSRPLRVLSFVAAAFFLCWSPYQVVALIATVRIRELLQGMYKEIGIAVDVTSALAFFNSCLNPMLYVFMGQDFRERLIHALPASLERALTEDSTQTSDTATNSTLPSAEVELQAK
# How it was run: as §1
# [3] = calcium, FLIPR Tetra, tested 0.61 to 10,000 nM, read-out: FPRL1 EC50
smiles,measurement,setting,value
"C[S+]([O-])c1ccc(NC(=O)C2C(C(=O)O)C3CCC2C32CC2)cc1 (racemic) [Compound 70, (+/−)-(1R,2S,3R,4S)-3-((4-Methylsulfinyl)phenyl)carbamoyl)spiro[bicyclo[2.2.1]-heptane-7,1′-cyclopropane]-2-carboxylic Acid]",EC50,[1]; [3],475 nM
same,FPRL1 (rel. eff.),"[1]; calcium, FLIPR Tetra",0.95
same,EC50,[2],> 10000 nM
"O=C(O)C1=C(C(=O)Nc2ccc(Br)cc2)C2C=CC1C21CC1 (racemic) [Compound 72, (+/−)-(1R,4S)-2-((4-Bromophenyl)carbamoyl)spiro[bicyclo[2.2.1]-hepta[2,5]diene-7,1′-cyclopropane]-3-carboxylic Acid]",EC50,[1]; [3],617 nM
same,FPRL1 (rel. eff.),"[1]; calcium, FLIPR Tetra",0.92
same,EC50,[2],> 10000 nM
"Cc1cc(Br)cc(C)c1NC(=O)[C@@H]1[C@H](C(=O)O)[C@@H]2CC[C@H]1C21CC1 (racemic) [Compound 73, (+/−)-(1R,2S,3R,4S)-2-((4-Bromo-2,6-dimethylphenyl)carbamoyl)spiro[bicyclo[2.2.1]-heptane-7,1′-cyclopropane]-3-carboxylic Acid]",EC50,[1]; [3],2120 nM
same,FPRL1 (rel. eff.),"[1]; calcium, FLIPR Tetra",0.67
same,EC50,[2],> 10000 nM
"NC(=O)c1ccc(NC(=O)C2C(C(=O)O)C3CCC2C32CC2)cc1 (racemic) [Compound 74, (+/−)-(1S,2R,3S,4R)-2-((4-Carbomoylphenyl)carbamoyl)spiro[bicyclo[2.2.1]-heptan-7,1′-cyclopropane]-3-carboxylic Acid]",EC50,[1]; [3],2770 nM
same,FPRL1 (rel. eff.),"[1]; calcium, FLIPR Tetra",0.67
same,EC50,[2],> 10000 nM
"CC(=O)Nc1ccc(NC(=O)[C@H]2[C@@H](C(=O)O)[C@H]3CC[C@@H]2C32CC2)cc1 (racemic) [Compound 75, (+/−)-(1S,2R,3S,4R)-2-((4-Acetamidophenyl)carbamoyl)spiro[bicyclo[2.2.1]-heptan-7,1′-cyclopropane]-3-carboxylic Acid]",EC50,"[1]; class symbol NA, read-out: FPRL1 EC50 (NA = Not Active)",> 10000 nM
same,EC50,[2],> 10000 nM
"CNC(=O)[C@@H]1[C@H](C(=O)Nc2ccc(Br)cc2)[C@@H]2CC[C@H]1C21CC1 (racemic) [Compound 77, (+/−)-(1S,2R,3S,4R)—N^2-(4-Bromophenyl)-N^3-methylspiro[bicyclo[2.2.1]heptane-7,1′-cyclopropane]-2,3-dicarboxamide]",EC50,[1]; [3],9.7 nM
same,FPRL1 (rel. eff.),"[1]; calcium, FLIPR Tetra",0.95
same,EC50,[2],> 10000 nM
"CCNC(=O)[C@@H]1[C@H](C(=O)Nc2ccc(Br)cc2)[C@@H]2CC[C@H]1C21CC1 (racemic) [Compound 78, (+/−)-(1S,2R,3S,4R)—N^2-(4-Bromophenyl)-N^3-ethylspiro[bicyclo[2.2.1]heptane-7,1′-cyclopropane]-2,3-dicarboxamide]",EC50,[1]; [3],12.5 nM
same,FPRL1 (rel. eff.),"[1]; calcium, FLIPR Tetra",0.95
same,EC50,[2],> 10000 nM
"CC(C)NC(=O)[C@@H]1[C@H](C(=O)Nc2ccc(Br)cc2)[C@@H]2CC[C@H]1C21CC1 (racemic) [Compound 79, (+/−)-(1S,2R,3S,4R)—N^2-(4-Bromophenyl)-N^3-isopropylspiro[bicyclo[2.2.1]heptane-7,1′-cyclopropane]-2,3-dicarboxamide]",EC50,[1]; [3],6.6 nM
same,FPRL1 (rel. eff.),"[1]; calcium, FLIPR Tetra",1.0
same,EC50,[2],> 10000 nM
"O=C(NCCO)[C@@H]1[C@H](C(=O)Nc2ccc(Br)cc2)[C@@H]2CC[C@H]1C21CC1 (racemic) [Compound 82, (+/−)-(1S,2R,3S,4R)—N^2-(4-Bromophenyl)-N^3-[2-hydroxyethyl]spiro[bicyclo[2.2.1]heptane-7,1′-cyclopropane]-2,3-dicarboxamide]",EC50,[1]; [3],8.8 nM
same,FPRL1 (rel. eff.),"[1]; calcium, FLIPR Tetra",0.86
same,EC50,[2],> 10000 nM
"O=C(OCc1ccccc1)[C@@H]1[C@H](C(=O)Nc2ccc(Br)cc2)[C@@H]2CC[C@H]1C21CC1 (racemic) [Compound 85, (+/−)-(1S,2R,3S,4R)-Benzyl 2-((4-bromophenyl)carbamoyl)spiro[bicyclo[2.2.1]heptane-7,1′-cyclopropane]-3-carboxylate]",EC50,[1]; [3],2140 nM
same,FPRL1 (rel. eff.),"[1]; calcium, FLIPR Tetra",0.88
same,EC50,[2],> 10000 nM

# From patent publication US8618163B2, “Derivatives of cycloalkyl- and cycloalkenyl-1,2-dicarboxylic acid compounds having formyl peptide receptor like-1 (FPRL-1) agonist or antagonist activity” (Allergan, Inc., priority 2010, dated 2013)
